Patent publication US7312240B2, “Conformationally constrained paclitaxel analogs and their use as anticancer and anti-Alzheimers agents” (Virginia Tech Intellectual Properties, Inc., priority 2004, dated 2007)

Columns and labels:
[1] = tested on: purified tubulin; conditions: for EC50: read-out: ED50, Tb polymerization, Tubulin concentration 5 μM
[2] = tested on: Taxol binding site on crosslinked microtubules (polymerized tubulin); experiment: Competition binding with fluorescent Taxol N-AB-PT; conditions: for Inhibit binding F-Taxol: 10 μM Taxol or Taxoid, 5 μM N-AB-PT, 5 μM crosslinked microtubules; for competition experiment with fluorescent Taxol, compared with Taxol/PTX: N-AB-PT 5 μM, increasing competitor (0-30 μM), FIG. 14
Method: Competition Binding Experiments. The relative affinities of Taxol and derivatives for polymerized tubulin were assessed by competition assays. Crosslinked microtubules were prepared in glycerol assembly buffer (10 mM phosphate, 1 mM EGTA, 0.1 mM GTP 3.4 M glycerol, pH 6.9) as described by Andreu and Barasoain. Prior to use, the crosslinked microtubules were dialyzed against PME buffer for 16-18 hr. Crosslinked microtubules (5 μM) and the fluorescent Taxol derivative N-AB-PT (15, 5 μM) in PME buffer were incubated for 20 min at room temperature with 10 μM of Taxol or the Taxoid. The fluorescence emission intensity at 412 nm of each sample was recorded using a Jobin-Yvon Horiba Fluoromax-3 spectrofluorometer in a 2 mm×10 mm quartz cell (1ex=320 nm) and compared to the emission intensity of the system in the absence of competitor.
For the fall competition experiment, microtubules, N-AB-PT and varying concentrations of Taxol or 13b (0-30 μM) were treated in the same manner and their emission intensities were measured. The full competition experiment was repeated using pure tubulin assembled by N-AB-PT and identical results were obtained (data not shown).

[3] = tested on: PC-3 prostate cell line; experiment: Cytotoxicity against PC3 prostate cancer cell line; conditions: for IC50(cp)/IC50(tx) PC3: ratio of compound IC50 to Taxol IC50, PC3
[4] = tested on: A2780 ovarian cancer cell line; experiment: Cytotoxicity against A2780 ovarian cancer cell line; conditions: for IC50(cp)/IC50(tx) A2780: ratio of compound IC50 to Taxol IC50, A2780; for Cytotoxicity (IC50, μg/ml) A2780: Example 2, A2780
[5] = tested on: GDP-tubulin; experiment: Critical concentration determination of tubulin assembly; type: biochemical; conditions: Taxoid concentration 10 μM; 37° C., PME buffer, 4% DMSO
Method: Critical Concentration Determination. The critical concentration of tubulin in the presence of 10 μM Taxol or Taxol analog was determined from assembly experiments performed at 37° C. with GDP-tubulin in PME buffer (100 mM PIPES, 2 mM MgSO4, 1 mM EGTA, pH=6.90) containing 4% DMSO. The extent of assembly was measured at different tubulin concentrations (0.5-6 μM) by light scattering (apparent absorption at 350 nm). Critical concentrations were calculated from the x-intercepts of plots of apparent A350 nm VS. tubulin concentration.

SMILES: CC(=O)O[C@H]1C(=O)[C@@]2(C)[C@@H]3[C@H](OC(=O)c4ccccc4)[C@]4(O)C[C@H](OC(=O)[C@H](O)[C@@H](NC(=O)c5ccccc5)c5cccc(c5)/C=C\CCC(=O)O[C@]35CO[C@@H]5C[C@@H]2O)C(C)=C1C4(C)C [Compound 15f]
- tubulin polymerization activity in words, compared to PTX [1]: comparable

SMILES: CC(=O)O[C@H]1C(=O)[C@@]2(C)[C@@H]3[C@H](OC(=O)c4ccccc4)[C@]4(O)C[C@H](OC(=O)[C@H](O)[C@@H](NC(=O)c5ccccc5)c5ccccc5/C=C/CC(=O)O[C@]35CO[C@@H]5C[C@@H]2O)C(C)=C1C4(C)C [Compound 15J]
- inhibition of binding of fluorescent taxol, compared with paclitaxel, in words [2]: better than paclitaxel
- tubulin polymerization activity in words, compared to PTX [1]: superior to PTX
- fold more cytotoxicity compared to PTX against PC3 ([3]; PC3 cell line): 2 fold
- fold more cytotoxicity compared to PTX ([4]; A2780 cell line, cell line not named): 6 fold

SMILES: CC(=O)O[C@H]1C(=O)[C@@]2(C)[C@@H]3[C@H](OC(=O)c4ccccc4)[C@]4(O)C[C@H](OC(=O)[C@H](O)[C@@H](NC(=O)c5ccccc5)c5cccc(c5)OCCCCCC(=O)O[C@]35CO[C@@H]5C[C@@H]2O)C(C)=C1C4(C)C [Compound 16e]
- cytotoxicity against A2780 in words, compared with PTX/Taxol or related analogs ([4]; A2780): much less than the unsaturated 15e and 15f

SMILES: C=CCCC(=O)OC12COC1CC(O)C1(C)C(=O)C(OC(C)=O)C3=C(C)C(OC(=O)C(O)C(NC(=O)c4ccccc4)c4cccc(C=C)c4)CC(O)(C(OC(=O)c4ccccc4)C21)C3(C)C (stereo not drawn) [Compound 13h]
- cytotoxicity against A2780 in words, compared with PTX/Taxol or related analogs ([4]; A2780): better cytotoxicites than their macrocyclic counter parts

SMILES: CC(=O)OC1C(=O)C2(C)C(O)CC3OCC34OC(=O)CCCc3ccccc3C(NC(=O)c3ccccc3)C(O)C(=O)OC3CC(O)(C(OC(=O)c5ccccc5)C42)C(C)(C)C1=C3C (stereo not drawn) [Compound 14a]
- Critical Tb conc. [5]: 0.35 ± 0.06 µM
- Inhibit binding F-Taxol [2]: 79%
- EC50 [1]: 210 ± 90 nM
- cytotoxicity against PC3 in words, compared with PTX/Taxol [3]: more potent than Taxol
- IC50(cp)/IC50(tx) PC3 [3]: 0.67
- cytotoxicity against A2780 in words, compared with PTX/Taxol or related analogs ([4]; A2780): more potent than Taxol
- IC50(cp)/IC50(tx) A2780 [4]: 0.08

SMILES: CC(=O)O[C@H]1C(=O)[C@@]2(C)[C@@H]3[C@H](OC(=O)c4ccccc4)[C@]4(O)C[C@H](OC(=O)[C@H](O)[C@@H](NC(=O)c5ccccc5)c5cccc(c5)CCCCC(=O)O[C@]35CO[C@@H]5C[C@@H]2O)C(C)=C1C4(C)C [Compound 16f]
- cytotoxicity against A2780 in words, compared with PTX/Taxol or related analogs ([4]; A2780): much less than the unsaturated 15e and 15f

SMILES: CC(=O)O[C@H]1C(=O)[C@@]2(C)[C@H]([C@H](OC(=O)c3ccccc3)[C@]3(O)C[C@H](OC(=O)[C@H](O)[C@@H](NC(=O)c4ccccc4)c4ccccc4)C(C)=C1C3(C)C)[C@]1(OC(C)=O)CO[C@@H]1C[C@@H]2O [Taxol, Paclitaxel]
- Critical Tb conc. [5]: 1.8 ± 0.30 µM
- Inhibit binding F-Taxol [2]: 26%
- EC50 [1]: 500 ± 140 nM
- Cytotoxicity (IC50, μg/ml) A2780 [4]: 0.02 µg/mL

SMILES: CC(=O)O[C@H]1C(=O)[C@@]2(C)[C@@H]3[C@H](OC(=O)c4ccccc4)[C@]4(O)C[C@H](OC(=O)[C@H](O)[C@@H](NC(=O)c5ccccc5)c5ccccc5C/C=C\C(=O)O[C@]35CO[C@@H]5C[C@@H]2O)C(C)=C1C4(C)C [Compound 13a]
- Critical Tb conc. [5]: 0.53 ± 0.07 µM
- Inhibit binding F-Taxol [2]: 72%
- EC50 [1]: 300 ± 90 nM
- cytotoxicity against PC3 in words, compared with PTX/Taxol [3]: slightly more cytotoxic than Taxol
- IC50(cp)/IC50(tx) PC3 [3]: 0.69
- cytotoxicity against A2780 in words, compared with PTX/Taxol or related analogs ([4]; A2780): approximately twenty times more potent than Taxol
- fold more potent than previous best analog 15 ([4]; A2780): approximately 300 fold
- IC50(cp)/IC50(tx) A2780 [4]: 0.045

SMILES: CC(=O)OC1C(=O)C2(C)C(O)CC3OCC34OC(=O)CCCOc3ccccc3C(NC(=O)c3ccccc3)C(O)C(=O)OC3CC(O)(C(OC(=O)c5ccccc5)C42)C(C)(C)C1=C3C (stereo not drawn) [Compound 14b]
- Critical Tb conc. [5]: 1.3 ± 0.33 µM
- Inhibit binding F-Taxol [2]: 7%
- EC50 [1]: 830 ± 190 nM
- cytotoxicity against PC3 in words, compared with PTX/Taxol [3]: slightly less potent
- IC50(cp)/IC50(tx) PC3 [3]: 3.3
- cytotoxicity against A2780 in words, compared with PTX/Taxol or related analogs ([4]; A2780): slightly less potent
- IC50(cp)/IC50(tx) A2780 [4]: 1.2

SMILES: CC(=O)O[C@H]1C(=O)[C@@]2(C)[C@@H]3[C@H](OC(=O)c4ccccc4)[C@]4(O)C[C@H](OC(=O)[C@H](O)[C@@H](NC(=O)c5ccccc5)c5ccccc5OC/C=C/C(=O)O[C@]35CO[C@@H]5C[C@@H]2O)C(C)=C1C4(C)C [Compound 13b]
- Critical Tb conc. [5]: 1.2 ± 0.24 µM
- Inhibit binding F-Taxol [2]: 30%
- competition experiment with fluorescent Taxol, compared with Taxol/PTX [2]: equal affinity
- EC50 [1]: 280 ± 110 nM
- cytotoxicity against PC3 in words, compared with PTX/Taxol [3]: equipotent with Taxol
- IC50(cp)/IC50(tx) PC3 [3]: 1.0
- cytotoxicity against A2780 in words, compared with PTX/Taxol or related analogs ([4]; A2780): equipotent with Taxol
- IC50(cp)/IC50(tx) A2780 [4]: 0.97

SMILES: CC(=O)O[C@H]1C(=O)[C@@]2(C)[C@@H]3[C@H](OC(=O)c4ccccc4)[C@]4(O)C[C@H](OC(=O)[C@H](O)[C@@H](NC(=O)c5ccccc5)c5ccccc5OCCCC(=O)O[C@]35CO[C@@H]5C[C@@H]2O)C(C)=C1C4(C)C [Compound 16b]
- inhibition of binding of fluorescent taxol, compared with paclitaxel, in words [2]: better than paclitaxel
- tubulin polymerization activity in words, compared to PTX [1]: superior to PTX
- cytotoxicity against PC3 in words, compared with PTX/Taxol [3]: more or less equal cytotoxicity
- cytotoxicity against A2780 in words, compared with PTX/Taxol or related analogs ([4]; A2780): more or less equal cytotoxicity

SMILES: CC(=O)O[C@H]1C(=O)[C@@]2(C)[C@@H]3[C@H](OC(=O)c4ccccc4)[C@]4(O)C[C@H](OC(=O)[C@H](O)[C@@H](NC(=O)c5ccccc5)c5ccccc5OC/C=C/C(=O)O[C@]35CO[C@@H]5C[C@@H]2O)C(C)=C1C4(C)C [Compound 15b]
- inhibition of binding of fluorescent taxol, compared with paclitaxel, in words [2]: better than paclitaxel
- competition experiment with fluorescent Taxol, compared with Taxol/PTX [2]: identical in all respect to PTX
- tubulin polymerization activity in words, compared to PTX [1]: superior to PTX
- cytotoxicity against PC3 in words, compared with PTX/Taxol [3]: two fold more cytotoxicity than PTX
- cytotoxicity against A2780 in words, compared with PTX/Taxol or related analogs ([4]; A2780): more or less equal cytotoxicity

SMILES: CC(=O)O[C@H]1C(=O)[C@@]2(C)[C@@H]3[C@H](OC(=O)c4ccccc4)[C@]4(O)C[C@H](OC(=O)[C@H](O)[C@@H](NC(=O)c5ccccc5)c5ccccc5OCC/C=C/C(=O)O[C@]35CO[C@@H]5C[C@@H]2O)C(C)=C1C4(C)C [Compound 15c]
- cytotoxicity against PC3 in words, compared with PTX/Taxol [3]: more or less equal cytotoxicity
- cytotoxicity against A2780 in words, compared with PTX/Taxol or related analogs ([4]; A2780): more or less equal cytotoxicity

SMILES: C=CCCC(=O)OC12COC1CC(O)C1(C)C(=O)C(OC(C)=O)C3=C(C)C(OC(=O)C(O)C(NC(=O)c4ccccc4)c4ccccc4OCC=C)CC(O)(C(OC(=O)c4ccccc4)C21)C3(C)C (stereo not drawn) [Compound 13i]
- cytotoxicity against A2780 in words, compared with PTX/Taxol or related analogs ([4]; A2780): better cytotoxicites than their macrocyclic counter parts

SMILES: C=CCOc1ccccc1C(NC(=O)c1ccccc1)C(O)C(=O)OC1CC2(O)C(OC(=O)c3ccccc3)C3C4(OC(=O)C=C)COC4CC(O)C3(C)C(=O)C(OC(C)=O)C(=C1C)C2(C)C (stereo not drawn) [Compound 13c]
- cytotoxicity against PC3 in words, compared with PTX/Taxol [3]: almost inactive
- cytotoxicity against A2780 in words, compared with PTX/Taxol or related analogs ([4]; A2780): almost inactive

SMILES: CC(=O)O[C@H]1C(=O)[C@@]2(C)[C@@H]3[C@H](OC(=O)c4ccccc4)[C@]4(O)C[C@H](OC(=O)[C@H](O)[C@@H](NC(=O)c5ccccc5)c5ccccc5OCCCCC(=O)O[C@]35CO[C@@H]5C[C@@H]2O)C(C)=C1C4(C)C [Compound 16c]
- cytotoxicity against PC3 in words, compared with PTX/Taxol [3]: more or less equal cytotoxicity
- cytotoxicity against A2780 in words, compared with PTX/Taxol or related analogs ([4]; A2780): more or less equal cytotoxicity

SMILES: CC(=O)O[C@H]1C(=O)[C@@]2(C)[C@@H]3[C@H](OC(=O)c4ccccc4)[C@]4(O)C[C@H](OC(=O)[C@H](O)[C@@H](NC(=O)c5ccccc5)c5cccc(c5)OC/C=C\CCC(=O)O[C@]35CO[C@@H]5C[C@@H]2O)C(C)=C1C4(C)C [Compound 15e]
- tubulin polymerization activity in words, compared to PTX [1]: comparable

SMILES: C=CC(=O)O[C@@]12CO[C@@H]1C[C@H](O)[C@@]1(C)C(=O)[C@H](OC(C)=O)C3=C(C)[C@@H](OC(=O)[C@H](O)[C@@H](NC(=O)c4ccccc4)c4ccccc4O/C=C\C)C[C@@](O)([C@@H](OC(=O)c4ccccc4)C12)C3(C)C (stereo partly drawn) [Compound 12b]
- EC50 [1]: 1020 ± 370 nM
- cytotoxicity against PC3 in words, compared with PTX/Taxol [3]: over two orders of magnitude less cytotoxic
- IC50(cp)/IC50(tx) PC3 [3]: 150
- cytotoxicity against A2780 in words, compared with PTX/Taxol or related analogs ([4]; A2780): over three orders of magnitude less cytotoxic
- IC50(cp)/IC50(tx) A2780 [4]: 1190

SMILES: O=C1/C=C/COc2cccc(c2)[C@H](NC(=O)c2ccccc2)[C@@H](O)C(=O)OC2CC3CC(CO1)C(OC(=O)c1ccccc1)C(C3)C2 (stereo partly drawn) [Compound 20b]
- cytotoxicity against A2780 in words, compared with PTX/Taxol or related analogs ([4]; A2780): less active than 18 and 19
- Cytotoxicity (IC50, μg/ml) A2780 [4]: >100 µg/mL
